Measured values from US20230183239A1, “ECTONUCLEOTIDE PYROPHOSPHATASE-PHOSPHODIESTERASE 1 (ENPP-1) INHIBITORS AND USES THEREOF” (AbbVie Inc., priority 2017, published 2023).
Like-named read-outs stand apart in the source and are kept apart here.

Tests used:
Type in all cases: biochemical
ENPP1 [1] = target: T1, ENPP1 (Homo sapiens, UniProt P22413); assay: ENPP1 enzyme assay with AMP-pNP substrate (hydrolysis of ATP analog)
T1 sequence (P22413 1-925): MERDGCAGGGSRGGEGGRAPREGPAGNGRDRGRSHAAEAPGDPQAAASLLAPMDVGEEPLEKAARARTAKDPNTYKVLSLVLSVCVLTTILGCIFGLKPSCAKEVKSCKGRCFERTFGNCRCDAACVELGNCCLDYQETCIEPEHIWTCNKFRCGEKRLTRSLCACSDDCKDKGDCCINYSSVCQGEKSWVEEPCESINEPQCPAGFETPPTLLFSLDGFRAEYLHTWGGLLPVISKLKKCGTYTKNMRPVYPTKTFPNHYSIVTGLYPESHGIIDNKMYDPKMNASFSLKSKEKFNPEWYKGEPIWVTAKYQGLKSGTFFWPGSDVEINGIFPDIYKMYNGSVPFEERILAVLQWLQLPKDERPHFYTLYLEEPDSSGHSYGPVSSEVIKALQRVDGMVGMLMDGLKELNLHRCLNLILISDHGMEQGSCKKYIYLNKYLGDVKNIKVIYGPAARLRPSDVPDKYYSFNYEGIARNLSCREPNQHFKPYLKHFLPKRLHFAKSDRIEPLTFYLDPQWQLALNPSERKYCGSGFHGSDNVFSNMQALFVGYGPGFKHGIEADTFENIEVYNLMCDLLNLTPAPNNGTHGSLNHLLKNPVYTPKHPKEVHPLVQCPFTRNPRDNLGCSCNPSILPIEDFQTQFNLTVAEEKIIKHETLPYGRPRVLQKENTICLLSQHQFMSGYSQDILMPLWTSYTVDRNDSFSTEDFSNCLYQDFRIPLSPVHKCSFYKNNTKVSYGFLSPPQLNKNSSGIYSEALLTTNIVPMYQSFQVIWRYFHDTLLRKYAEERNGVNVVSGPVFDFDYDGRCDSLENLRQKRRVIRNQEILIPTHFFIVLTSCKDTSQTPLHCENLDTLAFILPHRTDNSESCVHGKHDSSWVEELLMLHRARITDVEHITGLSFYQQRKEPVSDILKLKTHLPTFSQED
How it was run: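 Reactions ran 20 min at 37 °C, pH 8.5 Tris buffer with NaCl, CaCl2, ZnCl2, using 300 µM AMP-pNP and 60 ng/well recombinant human ENPP1; inhibitor range 10 µM–30 pM, duplicates.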

ENPP1 [2] = target: T1, ENPP1; assay: Indirect quantitation of 2',3'-cGAMP hydrolysis (AMP-Glo Assay kit)
ENPP1 [3] = target: T1, ENPP1; assay: Substrate selectivity ratio, inhibition of cGAMP hydrolysis versus ATP hydrolysis; conditions: ratio Ki AMP-pNP / Ki cGAMP
Procedure: The selectivity ratios for inhibition of cGAMP hydrolysis versus ATP hydrolysis were then calculated as follows: […]

ENPP1 [4] = target: T1, ENPP1; assay: ENPP1 enzyme assay with cGAMP substrate (AMP-Glo); design: purchased R&D Systems; conditions: for inhibition at 10 µM: 10 µM compound; for inhibition at 1 µM: read-out: cGAMP: % Inhibition at 1 µM
Source text: Example B1: ENPP1 Enzyme Assay With cGAMP Substrate
Ectonucleotide pyrophosphatase/phosphodiesterase 1 (ENPP-1) is a transmembrane glycoprotein that hydrolyzes nucleotides and nucleotide derivatives with the formation of nucleoside-5’-monophosphates. […] The 5’-AMP formed from the reaction is detected using the AMP-Glo® Kit (Promega). The assay kit contains two reagents. The first reagent terminates the enzymatic reaction, removes ATP (using adenylyl cyclase), and converts 5’-AMP produced into ADP (using polyphosphate: AMP phosphotransferase). The second reagent converts ADP to ATP (using adenylate kinase) and generates light from ATP using the luciferin/luciferase reaction.
Different concentrations of ENPP1 inhibitors are pre-incubated with 5 ng/well of human ENPP-1 enzyme (R&D Systems) for 15 minutes at 37° C. The reaction is initiated by adding 20 µM 2’3’-cGAMP and incubating for 30 minutes at 37° C. The final assay reaction mixture contains a buffer of 50 mM Tris pH 8.0, 250 mM NaCl, 0.5 mM CaCl2, 1 µM ZnCl2 and 1% DMSO. At the end of the incubation, the reaction is stopped by adding 12 µl of AMP-Glo reagent-1 and mixing the reaction uniformly for 5 minutes, followed by incubation at room temperature for one hour. Then 25 µl of AMP Glo reagent-2 is added to the reaction, mixed uniformly with a pipette, and incubated at room temperature for one hour to convert the ADP formed from reagent-1 to ATP and light. The generated light is measured in a Perkin Elmer Victor® instrument.
(§1) The IC50 values for percent inhibition versus compound concentration are determined by fitting the inhibition curves using a four-parameter variable slope model in GraphPad Prism® software. Ki values are derived from the IC50 values using the Cheng-Prusoff equation: […]

ENPP1 [5] = target: T1, ENPP1; assay: ENPP1 enzyme assay with TMP-pNP substrate; design: purchased R&D Systems; conditions: for Ki: Ki from IC50 by Cheng-Prusoff; for inhibition at 10 µM: read-out: TMP-pNP: % inhibition at 10 uM, 10 uM compound
Procedure: Example B2: ENPP1 Enzyme Assay With TMP-pNP Substrate
Ectonucleotide pyrophosphatase/phosphodiesterase 1 (ENPP-1) is a transmembrane glycoprotein that hydrolyzes nucleotides and nucleotide derivatives with the formation of nucleotide-5’-monophosphates. ENPP-1 hydrolyzes thymidine 5’monophosphate p-nitrophenyl ester (TMP-pNP) to nucleotide-5’-monophosphate and p-nitrophenol, which is a chromogenic product. The amount of p-nitrophenol product formed is measured using its absorbance at 405 nm, which is directly proportional to enzyme activity. Different concentrations of inhibitors are pre-incubated with 15 ng/well of human ENPP-1 enzyme (R&D Systems) for 15 minutes at 37° C. The reaction is initiated by adding 200 µM TMP-pNP and incubating for 10 minutes at 37° C. The final assay reaction mixture contains a buffer of 50 mM Tris pH 8.0, 250 mM NaCl, 0.5 mM CaCl2, 1 µM ZnCl2 and 1% DMSO. The amount of product formed is measured directly in a Tecan® spectrophotometer. Maximal activity control samples (containing enzyme, substrate, and buffer in the absence of ENPP1 inhibitors: MAX) and background control samples (containing enzyme, substrate, and buffer plus a fully inhibitory concentration (3 µM) of the reference ENPP1 Inhibitor, Example 333: MIN) are simultaneously evaluated in order to calculate the percent inhibition at each compound concentration as follows:
as §1, with “curves (percent inhibition versus inhibitor concentration)” for “curves”

[6] = AMP-pNP substrate (ATP analog), Ki from IC50 by Cheng-Prusoff, read-out: ENPP1 Inhibition _AMP-pNP: Ki
[7] = cGAMP substrate, Ki from IC50 by Cheng-Prusoff, read-out: ENPP1 Inhibition -cGAMP: Ki
[8] = cGAMP substrate, Ki from IC50 by Cheng-Prusoff, read-out: cGAMP: Ki

| Structure (SMILES) | Ki (ENPP1 [1]; [6]) | Ki (ENPP1 [2]; [7]) | Substrate Selectivity: Ki_AMP-pNP/Ki_cGAMP (ENPP1 [3]) | inhibition at 10 µM (ENPP1 [4]; cGAMP substrate) | Ki (ENPP1 [4]; [8]) | Ki (ENPP1 [5]) | inhibition at 1 µM (ENPP1 [4]; 1 µM compound, cGAMP substrate) | inhibition at 10 µM (ENPP1 [5]) | Ki (ENPP1 [1]) | Ki (ENPP1 [2]) | inhibition at 1 µM (ENPP1 [4]) | Ki (ENPP1 [4]) |
| --- | --- | --- | --- | --- | --- | --- | --- | --- | --- | --- | --- | --- |
| COc1cc2ncnc(N3CCC4(CC3)CCN(S(N)(=O)=O)C4)c2cc1OC [Example 29, 8-(6,7-dimethoxyquinazolin-4-+yl)-2,8-diazaspiro[4.5]decane-2-sulfonamide] | < 100 nM | < 100 nM | 19.2 | > 75% | < 100 nM | < 100 nM | – | – | – | – | – | – |
| CNc1nc(N2CCC(CCNS(N)(=O)=O)CC2)c2cc(OC)c(OC)cc2n1 [Example 2, N-(2-(1-(6,7-dimethoxy-2-(methylamino)quinazolin-4-yl)piperidin-4-yl)ethyl)sulfamide] | > 1000 nM | < 100 nM | >39.0 | – | – | – | > 75% | > 75% | – | – | – | – |
| COc1cc2ncnc(N3CCN(CCNS(N)(=O)=O)CC3)c2cc1OC [Example 40, N-(2-(4-(6,7-dimethoxyquinazolin-4-yl)piperazin-1-yl)ethyl)sulfamide] | – | – | 24.1 | – | – | – | – | – | 100 to 1000 nM | < 100 nM | > 75% | – |
| NS(=O)(=O)NCCC1CCN(c2ncnc3nc[nH]c23)CC1 [Example 23, N-(2-(1-(9H-purin-6-yl)piperidin-4-yl)ethyl)sulfamide] | – | > 1000 nM | – | < 25% | – | – | – | < 25% | – | – | – | – |
| Cn1cnc2c(N3CCC(CCNS(N)(=O)=O)CC3)ncnc21 [Example 24, N-(2-(1-(9-methyl-9H-purin-6-yl)piperidin-4-yl)ethyl)sulfamide] | – | > 1000 nM | – | – | – | – | – | < 25% | – | – | – | – |
| COc1cc2nccc(N3CCC(CCNS(N)(=O)=O)CC3)c2cc1OC [Example 43, N-(2-(1-(6,7-dimethoxyquinolin-4-yl)piperidin-4-yl)ethyl)sulfamide] | 100 to 1000 nM | < 100 nM | 22.9 | – | < 100 nM | < 100 nM | > 75% | – | – | – | – | – |
| COc1cc2nc(-c3cccnc3)nc(N3CCC(CCNS(N)(=O)=O)CC3)c2cc1OC [Example 5, N-(2-(1-(6,7-dimethoxy-2-(pyridin-3-yl)quinazolin-4-yl)piperidin-4-yl)ethyl)sulfamide] | – | – | >24 | – | – | – | – | 50 to 75% | > 1000 nM | 100 to 1000 nM | 50 to 75% | 100 to 1000 nM |
| COc1cc2nc(-c3ccncc3)nc(N3CCC(CCNS(N)(=O)=O)CC3)c2cc1OC [Example 6, N-(2-(1-(6,7-dimethoxy-2-(pyridin-4-yl)quinazolin-4-yl)piperidin-4-yl)ethyl)sulfamide] | – | 100 to 1000 nM | – | – | 100 to 1000 nM | > 1000 nM | – | – | – | – | 25 to 50% | – |
| COc1cc2ncc(C#N)c(N3CCC(CCNS(N)(=O)=O)CC3)c2cc1OC [Example 20, N-(2-(1-(3-cyano-6,7-dimethoxyquinolin-4-yl)piperidin-4-yl)ethyl)sulfamide] | 100 to 1000 nM | < 100 nM | 489 | – | < 100 nM | < 100 nM | > 75% | – | – | – | – | – |
| CCN(C)S(=O)(=O)NCCC1CCN(c2ncnc3cc(OC)c(OC)cc23)CC1 [Example 42, 2-(1-(6,7-dimethoxyquinazolin-4-yl)piperidin-4-yl)ethan-1-amino(N-ethyl-N-methyl)sulfonamide] | – | – | >96.1 | – | – | > 1000 nM | – | – | > 1000 nM | 100 to 1000 nM | – | 100 to 1000 nM |
| COc1cc2ncnc(NCc3ccc(NS(N)(=O)=O)cc3)c2cc1OC [Example 34, N-(4-(((6,7-dimethoxyquinazolin-4-yl)amino)methyl)phenyl) sulfamidetrifluoroacetate] | 100 to 1000 nM | < 100 nM | 17.4 | – | < 100 nM | < 100 nM | > 75% | – | – | – | – | – |
| COc1cc2nc(N(C)C)nc(N3CCC(CCNS(N)(=O)=O)CC3)c2cc1OC [Example 3, N-(2-(1-(2-(dimethylamino)-6,7-dimethoxyquinazolin-4-yl)piperidin-4-yl)ethyl)sulfamide] | – | 100 to 1000 nM | – | – | – | – | 25 to 50% | 50 to 75% | – | – | – | – |
| NS(=O)(=O)NCCC1CCN(c2ncnc3ccccc23)CC1 [Example 35, N-(2-(1-(quinazolin-4-yl)piperidin-4-yl)ethyl)sulfamide] | – | 100 to 1000 nM | – | > 75% | 100 to 1000 nM | > 1000 nM | – | – | – | – | – | – |
| Cc1cncnc1N1CCC(CCNS(N)(=O)=O)CC1 [Example 17, N-(2-(1-(5-methylpyrimidin-4-yl)piperidin-4-yl)ethyl)sulfamide] | – | > 1000 nM | – | < 25% | – | – | – | < 25% | – | – | – | – |
| NS(=O)(=O)NCCC1CCN(c2ccncn2)CC1 [Example 18, N-(2-(1-(pyrimidin-4-yl)piperidin-4-yl)ethyl)sulfamide] | – | > 1000 nM | – | – | – | – | – | < 25% | – | – | – | – |
| COc1cc2nc(N)nc(N3CCC(CCNS(N)(=O)=O)CC3)c2cc1OC [Example 1, N-(2-(1-(2-amino-6,7-dimethoxyquinazolin-4-yl)piperidin-4-yl)ethyl)sulfamide] | 100 to 1000 nM | < 100 nM | 41.7 | – | < 100 nM | 100 to 1000 nM | – | – | – | – | – | – |
| COc1cc2ncnc(N3CCc4c(cccc4NS(N)(=O)=O)C3)c2cc1OC [Example 28, N-(2-(6,7-dimethoxyquinazolin-4-yl)-1,2,3,4-tetrahydroisoquinolin-5-yl)sulfamide] | 100 to 1000 nM | < 100 nM | 31.2 | – | < 100 nM | 100 to 1000 nM | – | – | – | – | – | – |
